In assay [1] the target is T1, sigma-2 receptors (Rattus norvegicus, UniProt Q5U3Y7).
T1 sequence (Q5U3Y7 1-176): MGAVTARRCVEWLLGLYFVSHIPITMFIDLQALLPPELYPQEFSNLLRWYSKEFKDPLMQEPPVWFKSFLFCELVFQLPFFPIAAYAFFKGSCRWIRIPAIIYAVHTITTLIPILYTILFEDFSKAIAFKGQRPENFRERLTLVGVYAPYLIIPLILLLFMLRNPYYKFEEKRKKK
The assay can be described thus: sigma-2 receptor radioligand binding.

Assay [2] has as its system σ-1. As to conditions: quantity type not given; cited from earlier work.
Assay [3] deals with σ-2. To be noted: quantity type not given; cited from earlier work.

Where a name gives a salt, the structure may show the parent alone.

On to `Fc1ccc(N2CCN(CCCCn3ccc4ccccc43)CC2)cc1` [4b, 1-(4-(4-(4-Fluorophenyl)piperazin-1-yl)butyl)indole oxalate], for which the σ-1/σ-2 selectivity ratio in assay [1] was found to be 5. In the case of `Fc1ccc(-n2cc(CCCCN3CCC4(CC3)OCc3ccccc34)c3ccccc32)cc1` [Siramesine], in assay [2], the σ-1 affinity is listed as 17 nM. Consider `COc1cc2c(cc1OC)CN(CCCCNC(=O)c1cc(Br)cc(OC)c1OC)CC2` [5-bromo-N-(4-(6,7-dimethoxy-3,4-dihydroisoquinolin-2(1H)-yl)butyl)-2,3-dimethoxybenzamide], for which, in assay [3], the σ-2 affinity is on record as 8.2 nM. Further, the σ-1 affinity in assay [2] is 12,900 nM.
